Test results reported in patent US5324648A, “Substituted isocoumarins as serine protease inhibitors and anti-inflammatory agents” (Georgia Tech Research Corporation, priority 1992, dated 1994).
Like-named read-outs stand apart in the source and are kept apart here.

Legend:
human thrombin = molecular target: T1, human thrombin (Homo sapiens, UniProt P00734); experiment: Inactivation rate of human thrombin; type: biochemical; conditions: Table VIII; pH 7.5, 25° C; [I] 1.2-54 μM; read-out: kobs/[I]
T1 construct: human thrombin
Experimental: (§1) Inactivation rates of serine proteases by substituted isocoumarins were measured by the incubation method. An aliquot of inhibitor (25 or 50 μl) in Me2 SO was added to a buffered enzyme solution (0.01-2.3 μM) to initiate the inactivation. Aliquots (50 μl) were withdrawn at various intervals and the residual enzymatic activity was measured. Me2 SO concentration in the reaction mixture was 8-12% (v/v). 0.1 Hepes, 0.01M CaCl2, pH 7.5 buffer was utilized for trypsin and coagulation enzymes. 0.1M Hepes, 0.5M NaCl, pH 7.5 was utilized for other serine proteases. The inhibitor concentrations are shown in all the tables. Peptide thioesters or peptide nitroanilides with appropriate sequence were used as substrates for various serine proteases. All peptide thioester hydrolysis rates were measured with assay mixtures containing 4,4'-dithiodipyridine (ε324 =19800M^-1 cm^-1; Grasetti & Murray, Arch. Biochem. Biophys. 119, pp 41-49 (1967)). Peptide 4-nitroanilide nitroanilide hydrolysis was measured at 410 nm (ε410 =8800M^-1 cm^-1; Erlanger et al., Arch. Biochem. Biophys. 95, pp 271-278 (1961)). First order inactivation rate constant (kobs) were obtained from plots of ln (vt /vo) vs time, and the correlation coefficients were greater than 0.98.
(§2) ^a Inhibition rates were measured in 0.1M Hepes, 0.01M CaCl2, pH
(§3) 7.5 buffer, 8% Me2 SO and at 25° C.

bovine thrombin = molecular target: T2, bovine thrombin (Bos taurus, UniProt P00735); experiment: Inactivation rate of bovine thrombin; type: biochemical; conditions: Table VIII; pH 7.5, 25° C; [I] 1.2-54 μM; read-out: kobs/[I]
T2 construct: bovine thrombin
Experimental: as §1
(§4) ^a Conditions were as 0.1M Hepes, 0.01M CaCl2, pH 7.5 and 8-12%
(§5) Me2 SO and 25° C. Rate constants were measured by incubation
(§6) method unless otherwise noted. An aliquot of inhibitor was added to an
(§7) enzyme solution and aliquots removed with time and assayed for remaining
(§8) enzymatic activity. Firstorder rate constants, kobs were obtained
(§9) from the plots of ln(vt /vo) versus time.
as §2, §3

human lung tryptase = experiment: Inactivation rate of human lung tryptase; type: biochemical; conditions: Table IX; for percentage of inhibition: not time dependent, at 0.34-5.0 μM; for kobs/[I]: pH 7.5, 25° C, [I] 0.42-0.47 μM
Experimental: as §1
^a Inactivation rates were measured at 0.1M Hepes, 0.5M NaCl, pH 7.5
buffer, 8% Me2 SO and 25° C.
as §2
(§10) 7.5 buffer for human plasmin; 25 mM Phosphate, 0.5M NaCl, 1 mM EDTA, pH
(§11) 7.5 buffer for rat skin tryptase and 0.1M Hepes, 0.5M NaCl, pH 7.5 for
(§12) human lung tryptase, human skin tryptase and rt-PA. All enzymes were
(§13) assayed with ZArg-SBzl (0.07 mM) in the presence of 4,4dithiodipyridine
(§14) (0.33 mM). Reaction mixtures contained 8% Me2 SO and assays were […]

rat skin tryptase = molecular target: T3, rat skin tryptase (Rattus norvegicus, UniProt P27435); experiment: Inactivation rate of rat skin tryptase; type: biochemical; conditions: pH 7.5, Table IX; pH 7.5, 25° C; [I] 0.42-0.51 μM; read-out: kobs/[I]
T3 construct: from tissue; host or cells: rat skin
T3 sequence (P27435 29-273): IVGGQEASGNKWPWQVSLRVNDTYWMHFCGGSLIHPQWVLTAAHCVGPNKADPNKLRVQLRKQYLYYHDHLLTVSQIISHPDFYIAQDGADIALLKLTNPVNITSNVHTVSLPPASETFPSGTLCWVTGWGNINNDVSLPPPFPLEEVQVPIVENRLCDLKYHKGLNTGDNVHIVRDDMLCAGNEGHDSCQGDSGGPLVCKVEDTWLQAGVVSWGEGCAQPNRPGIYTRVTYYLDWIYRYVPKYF
Experimental: as §1
^b Inactivation rates were measured at 25 mM phosphate, 0.5M NaCl, 1
mM EDTA, pH 7.5 buffer, 9% Me2 SO and 25° C.
as §2, §10, §11, §12, §13, §14

[1] = molecular target: T4, porcine pancreatic elastase (PPE) (Sus scrofa, UniProt P00772); experiment: Inactivation of porcine pancreatic elastase (PPE); type: biochemical; conditions: Table X; after 20 min incubation
T4 construct: from tissue; host or cells: porcine pancreas (from the name)
T4 sequence (P00772 27-266): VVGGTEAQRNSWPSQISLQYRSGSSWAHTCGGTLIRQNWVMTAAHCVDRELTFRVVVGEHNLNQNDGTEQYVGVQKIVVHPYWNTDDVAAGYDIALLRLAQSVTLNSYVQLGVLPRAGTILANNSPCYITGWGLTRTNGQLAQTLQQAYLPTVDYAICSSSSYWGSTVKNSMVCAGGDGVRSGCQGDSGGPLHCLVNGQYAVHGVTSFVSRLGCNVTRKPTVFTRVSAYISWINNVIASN

[2] = molecular target: T5, human leukocyte elastase (HLE) (Homo sapiens, UniProt P08246); experiment: Inactivation of human leukocyte elastase (HLE); type: biochemical; conditions: Table X; pH 7.5, 25° C; [I] 2.1-42 μM; read-out: kobs/[I]
T5 construct: from tissue; host or cells: human leukocytes (from the name)
T5 sequence (P08246 30-267): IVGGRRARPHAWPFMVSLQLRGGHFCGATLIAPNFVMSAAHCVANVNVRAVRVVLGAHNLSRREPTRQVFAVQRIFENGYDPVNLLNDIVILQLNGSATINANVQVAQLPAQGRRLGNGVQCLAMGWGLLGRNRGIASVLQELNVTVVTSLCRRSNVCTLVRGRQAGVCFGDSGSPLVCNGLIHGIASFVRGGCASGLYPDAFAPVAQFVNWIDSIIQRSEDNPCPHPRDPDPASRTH

chymotrypsin = chymotrypsin (Bos taurus, UniProt P00766); experiment: Inactivation of chymotrypsin; type: biochemical, bovine; conditions: Table X, read-out: kobs/[I]
cathepsin G = molecular target: T6, cathepsin G (Homo sapiens, UniProt P08311); experiment: Inactivation of cathepsin G; type: biochemical; conditions: Table X; pH 7.5, 25° C; [I] 33-46 μM; read-out: kobs/[I]
T6 construct: from tissue; host or cells: human leukocytes
T6 sequence (P08311 21-255): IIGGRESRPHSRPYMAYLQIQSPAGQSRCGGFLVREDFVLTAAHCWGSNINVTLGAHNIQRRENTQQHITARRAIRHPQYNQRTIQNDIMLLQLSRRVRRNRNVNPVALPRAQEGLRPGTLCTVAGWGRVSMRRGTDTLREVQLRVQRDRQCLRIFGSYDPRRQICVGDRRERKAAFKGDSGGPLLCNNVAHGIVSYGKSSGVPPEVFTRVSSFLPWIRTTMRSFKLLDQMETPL
Experimental: Inactivation rates of serine proteases by substituted isocoumarins were measured by the incubation method. An aliquot of inhibitor (25 or 50 μl) in Me2 SO was added to a buffered enzyme solution (0.01-2.3 μM) to initiate the inactivation. Aliquots (50 μl) were withdrawn at various intervals and the residual enzymatic activity was measured. Me2 SO concentration in the reaction mixture was 8-12% (v/v). 0.1 Hepes, 0.01M CaCl2, pH 7.5 buffer was utilized for trypsin and coagulation enzymes. 0.1M Hepes, 0.5M NaCl, pH 7.5 was utilized for other serine proteases. […] Peptide thioesters or peptide nitroanilides with appropriate sequence were used as substrates for various serine proteases. All peptide thioester hydrolysis rates were measured with assay mixtures containing 4,4'-dithiodipyridine (ε324 =19800M^-1 cm^-1 ; Grasetti & Murray, Arch. Biochem. Biophys. 119, pp 41-49 (1967)). Peptide 4-nitroanilide nitroanilide hydrolysis was measured at 410 nm (ε410 =8800M^-1 cm^-1 ; Erlanger et al., Arch. Biochem. Biophys. 95, pp 271-278 (1961)). First order inactivation rate constant (kobs) were obtained from plots of ln (vt /vo) vs time, and the correlation coefficients were greater than 0.98.
^a Inactivation rates were measured at 0.1M Hepes, 0.5 NaCl, pH 7.5,
8-12% Me2 SO and 25° C. by incubation method.
and assayed for remaining activity.
^a Inhibition rates were measured in 0.1M Hepes, 0.05M NaCl, pH 7.5
buffer, 8-9% Me2 SO and at 25° C.
Me2 SO, pH 7,5 and at 25° C.
^a Inhibition was measured in 0.1M Hepes, 0.5M NaCl, pH 7.5 buffer,
5-10% Me2 SO and at 25° C. Suc--Val--Pro--Phe--NA (0.48 mM)
was used as the substrate for chymotrypsin and cat G.

[3] = molecular target: recombinant human tissue plasminogen activator (Homo sapiens, UniProt P00750); experiment: Inactivation rate of recombinant human tissue plasminogen activator; type: biochemical; conditions: for kinact/KI: pH 7.5, Table IX, pH 7.5, 25° C, [I] 3.5-5.0 μM, read-out: kobs/[I]
recombinant human tissue plasminogen activator, sequence (P00750 36-562): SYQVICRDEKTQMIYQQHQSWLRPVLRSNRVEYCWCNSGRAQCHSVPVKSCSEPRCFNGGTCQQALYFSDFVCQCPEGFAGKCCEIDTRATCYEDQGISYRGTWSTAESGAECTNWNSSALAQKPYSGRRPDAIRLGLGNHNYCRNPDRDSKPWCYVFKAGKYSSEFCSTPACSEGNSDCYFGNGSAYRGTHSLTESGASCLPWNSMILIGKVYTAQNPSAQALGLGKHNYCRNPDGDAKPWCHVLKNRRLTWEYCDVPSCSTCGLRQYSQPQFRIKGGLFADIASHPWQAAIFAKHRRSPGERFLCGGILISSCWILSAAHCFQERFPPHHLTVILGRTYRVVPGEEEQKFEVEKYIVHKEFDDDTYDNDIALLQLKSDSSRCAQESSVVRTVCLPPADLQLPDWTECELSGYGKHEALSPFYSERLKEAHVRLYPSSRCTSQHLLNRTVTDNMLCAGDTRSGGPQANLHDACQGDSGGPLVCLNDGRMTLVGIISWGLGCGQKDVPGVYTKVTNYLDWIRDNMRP
Experimental: as §1
^a Inactivation constants were measured at 0.1M Hepes, 0.5M NaCl (or
as §2, §10, §11, §12, §13, §14

bovine trypsin = molecular target: T7, bovine trypsin (Bos taurus, UniProt P00760); experiment: Inactivation rate of bovine trypsin; type: biochemical; conditions: Table VIII; pH 7.5, 25° C; [I] 1.1-4.6 μM; read-out: kobs/[I]
T7 sequence (P00760 24-246): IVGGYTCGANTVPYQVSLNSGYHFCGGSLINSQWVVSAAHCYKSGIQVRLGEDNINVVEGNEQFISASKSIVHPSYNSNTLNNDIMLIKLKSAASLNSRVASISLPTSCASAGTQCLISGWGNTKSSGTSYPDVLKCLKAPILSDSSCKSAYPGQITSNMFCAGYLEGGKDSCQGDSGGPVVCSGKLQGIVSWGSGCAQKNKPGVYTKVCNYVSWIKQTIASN
Experimental: as §1, §4, §5, §6, §7, §8, §9, §2, §3

[4] = Spontaneous hydrolysis in Hepes buffer; type: physicochemical; conditions: 0.1 Hepes, 0.5M NaCl, pH 7.5, 9% Me2SO, 25° C
Experimental: ^a Conditions were 0.1 Hepes, 0.5M NaCl, pH 7.5 and 9% Me2 SO at
25° C. Spontaneous hydrolysis rates were measured
spectrophotometrically by monitoring the decrease in absorbance due to th
isocoumarin ring system (wavelength 335-380 nm) using the firstorder rate

human factor Xa = molecular target: T8, human factor Xa (Homo sapiens, UniProt P00742); experiment: Inactivation rate of human factor Xa; type: biochemical; conditions: Table VIII; pH 7.5, 25° C; [I] 3.6-44 μM; read-out: kobs/[I]
T8 construct: human factor Xa
T8 sequence (P00742 235-488 limits assumed): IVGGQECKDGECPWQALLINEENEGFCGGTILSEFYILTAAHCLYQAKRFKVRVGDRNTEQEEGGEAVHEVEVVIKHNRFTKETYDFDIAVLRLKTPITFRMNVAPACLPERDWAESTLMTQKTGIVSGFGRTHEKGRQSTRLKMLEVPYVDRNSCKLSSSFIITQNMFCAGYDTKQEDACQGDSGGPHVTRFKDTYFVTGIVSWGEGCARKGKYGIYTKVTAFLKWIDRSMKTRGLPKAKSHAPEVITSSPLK
T8 sequence (P00742 41-179 partner limits assumed): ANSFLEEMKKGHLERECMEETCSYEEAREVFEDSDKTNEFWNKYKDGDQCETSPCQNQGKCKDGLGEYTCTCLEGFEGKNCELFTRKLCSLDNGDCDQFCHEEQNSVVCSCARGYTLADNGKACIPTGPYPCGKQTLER
Experimental: as §1, §4, §5, §6, §7, §8, §9, §2, §3

kinact/KI (human thrombin) | kinact/KI (bovine thrombin) | kinact/KI (rat skin tryptase) | kinact/KI (bovine trypsin) | kinact/KI [3] | Compound | further results
21400 M⁻¹ s⁻¹ |  |  |  |  | N=C(N)SCCOc1oc(=O)c2cc(NC(=S)Nc3ccccc3)ccc2c1Cl [PhNHCSNH-CiTEtOIC, 7-phenylthiocarbamoylamino-4-chloro-3-(2-isothiureidoethoxy)isocoumarin] | 
17500 M⁻¹ s⁻¹ |  |  |  |  | N=C(N)SCCOc1oc(=O)c2cc(NC(=S)Nc3cccc(C(=O)O)c3)ccc2c1Cl [m-Carboxy-PhNHCSNH-CiTEtOIC, 7-(m-carboxyphenylthiocarbamoyl)amino-4-chloro-3-(2-isothiureidoethoxy)isocoumarin] | 
1090 M⁻¹ s⁻¹ | 1040 M⁻¹ s⁻¹ | 135000 M⁻¹ s⁻¹ |  |  | CC(C)(C)OC(=O)N[C@H](Cc1ccccc1)C(=O)Nc1ccc2c(Cl)c(OCCSC(=N)N)oc(=O)c2c1 [Boc-D-Phe--NH-CiTEtOIC, 7-(N-t-butyloxycarbonyl-D-phenylalanylamino)-4-chloro-3-(2-isothiureidoethoxy)isocoumarin] | percentage of inhibition (human lung tryptase): 44%; percentage of inhibition [1]: 12%; kinact/KI [2]: 3100 M⁻¹ s⁻¹; kinact/KI (chymotrypsin; pH 7.5, 25° C, [I] 0.9-43 μM): 220 M⁻¹ s⁻¹; kinact/KI (cathepsin G): 35 M⁻¹ s⁻¹; percentage of inhibition ([3]; Table IX, not time dependent, at 0.34-5.0 μM): 65%
630 M⁻¹ s⁻¹ | 820 M⁻¹ s⁻¹ | 170000 M⁻¹ s⁻¹ | 87900 M⁻¹ s⁻¹ | 15000 M⁻¹ s⁻¹ | N=C(N)SCCCOc1oc(=O)c2cc(NC(=O)CCc3ccccc3)ccc2c1Cl [PhCH2 CH2 CONH-CiTPrOIC, 7-(3-phenylpropionylamino)-4-chloro-3-(3-isothiureidopropoxy)isocoumarin] | kobs/[I] (human lung tryptase): 180,000 M^-1 s^-1; t1/2 for spontaneous hydrolysis [4]: 1.1 h
310 M⁻¹ s⁻¹ | 420 M⁻¹ s⁻¹ | 99000 M⁻¹ s⁻¹ | 107000 M⁻¹ s⁻¹ | 7000 M⁻¹ s⁻¹ | CC(=O)Nc1ccc2c(Cl)c(OCCCSC(=N)N)oc(=O)c2c1 [CH3 CONH-CiTPrOIC, 7-(acetylamino)-4-chloro-3-(3-isothiureidopropoxy)isocoumarin] | percentage of inhibition (human lung tryptase): 60%; kinact/KI [2]: 200 M⁻¹ s⁻¹; kinact/KI (chymotrypsin; pH 7.5, 25° C, [I] 0.9-43 μM): 5200 M⁻¹ s⁻¹; kinact/KI (cathepsin G): 31 M⁻¹ s⁻¹; t1/2 for spontaneous hydrolysis [4]: 1.13 h
970 M⁻¹ s⁻¹ | 1530 M⁻¹ s⁻¹ |  |  |  | C[C@H](NC(=O)OC(C)(C)C)C(=O)N[C@@H](C)C(=O)Nc1ccc2c(Cl)c(OCCSC(=N)N)oc(=O)c2c1 [Boc--Ala-- Ala--NH-CiTEtOIC, 7-(N-t-butyloxycarbonyl-L-alanyl-L-alanylamino)-4-chloro-3-(2-isothiureidoethoxy)isocoumarin] | 
1140 M⁻¹ s⁻¹ | 1090 M⁻¹ s⁻¹ |  |  |  | CC(C)(C)OC(=O)N[C@@H](Cc1ccccc1)C(=O)Nc1ccc2c(Cl)c(OCCSC(=N)N)oc(=O)c2c1 [Boc-L-Phe--NH-CiTEtOIC, 7-(N-t-butyloxycarbonyl-L-phenylalanylamino)-4-chloro-3-(2-isothiureidoethoxy)isocoumarin] | kinact/KI (human factor Xa): 1620 M⁻¹ s⁻¹
230 M⁻¹ s⁻¹ | 190 M⁻¹ s⁻¹ |  | 105000 M⁻¹ s⁻¹ |  | CC(C)(C)OC(=O)N[C@H](Cc1ccccc1)C(=O)Nc1ccc2c(Cl)c(OCCCSC(=N)N)oc(=O)c2c1 [Boc-D-Phe--NH-CiTPrOIC, 7-(N-t-butyloxycarbonyl-D-phenylalanylamino)-4-chloro-3-(3-isothiureidopropoxy)isocoumarin] | 
5000 M⁻¹ s⁻¹ | 4100 M⁻¹ s⁻¹ |  |  |  | CC(C)NC(=O)Nc1ccc2c(Cl)c(OCCSC(=N)N)oc(=O)c2c1 [(CH3)2 CHNHCONH-CiTEtOIC, 7-(isopropylcarbamoylamino)-4-chloro-3-(2-isothiureidoethoxy)isocoumarin] | 
220 M⁻¹ s⁻¹ | 180 M⁻¹ s⁻¹ |  | 68300 M⁻¹ s⁻¹ |  | N=C(N)SCCCOc1oc(=O)c2cc(NC(=O)[C@H](N)Cc3ccccc3)ccc2c1Cl [D-Phe--NH-CiTPrOIC, 7-(D-phenylalanylamino)-4-chloro-3-(3-isothiureidopropoxy)isocoumarin] | 
610 M⁻¹ s⁻¹ | 600 M⁻¹ s⁻¹ | 145000 M⁻¹ s⁻¹ | 165000 M⁻¹ s⁻¹ | 9000 M⁻¹ s⁻¹ | N=C(N)SCCCOc1oc(=O)c2cc(NC(=O)Cc3ccccc3)ccc2c1Cl [PhCH2 CONH-CiTPrOIC, 7-(phenylacetylamino)-4-chloro-3-(3-isothiureidopropoxy)isocoumarin] | kobs/[I] (human lung tryptase): 140,000 M^-1 s^-1; kinact/KI [2]: 130 M⁻¹ s⁻¹; kinact/KI (chymotrypsin; pH 7.5, second order rate, equal molar enzyme and inhibitor): 260000 M⁻¹ s⁻¹; kinact/KI (cathepsin G): 64 M⁻¹ s⁻¹; t1/2 for spontaneous hydrolysis [4]: 1.02 h
5800 M⁻¹ s⁻¹ | 17500 M⁻¹ s⁻¹ |  |  |  | N=C(N)SCCOc1oc(=O)c2cc(NC(=O)Nc3cccc4ccccc34)ccc2c1Cl [Naphthyl-NHCONH-CiTEtOIC, 7-(1-naphthylcarbamoylamino)-4-chloro-3-(2-isothiureidoethoxy)isocoumarin] | 
520 M⁻¹ s⁻¹ | 330 M⁻¹ s⁻¹ | 150000 M⁻¹ s⁻¹ |  | 6000 M⁻¹ s⁻¹ | CC(C)(C)OC(=O)N[C@@H](Cc1ccccc1)C(=O)Nc1ccc2c(Cl)c(OCCCSC(=N)N)oc(=O)c2c1 [Boc-L-Phe--NH-CiTPrOIC, 7-(N-t-butyloxycarbonyl-L-phenylalanylamino)-4-chloro-3-(3-isothiureidopropoxy)isocoumarin] | kobs/[I] (human lung tryptase): 170,000 M^-1 s^-1
470 M⁻¹ s⁻¹ | 400 M⁻¹ s⁻¹ | 96000 M⁻¹ s⁻¹ |  | 11000 M⁻¹ s⁻¹ | N=C(N)SCCCOc1oc(=O)c2cc(NC(=O)[C@@H](N)Cc3ccccc3)ccc2c1Cl [L-Phe--NH-CiTPrOIC, 7-(L-phenylalanylamino)-4-chloro-3-(3-isothiureidopropoxy)isocoumarin] | percentage of inhibition (human lung tryptase): 54%
